# Like-named read-outs stand apart in the source and are kept apart here.
# What was measured:
# [1] = Procedure: Female, athymic nude mice (aged 6-8 weeks) were randomized to one of 12 study arms (n=3 per arm) (Table 16) and weighed prior to dosing. Mice were dosed via oral gavage either once daily (QD), or bi-daily (BID) for five days. […] The vehicle for PF-06952229 (PF) was 10% DMSO, 40% PEG300, 5% tween-80, 45% saline. For the vehicle alone group in this study, the PF-06952229 vehicle was used. At the end of each day for 10 days, mice were weighed, and symptoms of toxicity (if present) were recorded. A qualitative determination of overall toxicity was made based on the number and severity of symptoms for each cohort. The safety margin was determined at the end of day 10 based on the following equation: (maximum tolerated dose)/(minimum effective dose).
# [2] = system: TGF-beta induced SMAD signaling; test: RDSR (RD SMAD reporter) Cellular Reporter Assay; assay type: cell-based; settings: Homo sapiens; 200 pg/ml rhTGF-beta1, 24 h; control compounds; read-out: RDSR reporter activity
# Outline: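 Human rhabdomyosarcoma RD cells stably carrying an SBE-driven luc2P luciferase reporter. Inhibition of SMAD signaling was quantified from ONE-Glo luminescence.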
# [3] = system: TGF-β1 mediated alpha-SMA expression in primary human bronchial fibroblasts derived from IPF patients; test: Fibroblast to Myofibroblast Transformation (FMT) assay
# Procedure: To test the ability of compounds of the invention to inhibit the TGF-β1 dependent transition of fibroblasts to myofibroblasts in a relevant disease model of IPF, a study was carried out using an FMT assay employing lung fibroblasts from IPF patients. In this model the transition of fibroblasts to myofibroblasts is determined by the expression of the biomarker alpha smooth muscle actin (SMA).
# Each drug concentration condition was evaluated in biological duplicates. One hour after compound addition, cells were stimulated with 1.25 ng/ml of TGF-01 and cultured for 72 hours thereafter. At the end of 72 hours cells were fixed using formaldehyde. The results were generated using high content imaging after staining cells using the nuclear stain DAPI as well as evaluation of the expression of alpha SMA. […] As a negative control 0.1% DMSO was used matching the DMSO concentration in treated wells.
# [4] = system: bleomycin-induced lung fibrosis; test: Bleomycin-induced lung fibrosis study; assay type: in vivo, mouse
# From the text: Fibrosis, the formation of excess connective tissue causing stromal hardening and scar formation is a hallmark of cancer. Up to 20% of cancers are linked to chronic, inflammation-related fibrosis, including hepatocellular, gastric, esophageal, head and neck, colon, pancreatic, cervix, and vulvar cancers. The contribution of fibrosis for early cancer development remains unclear; however, in some advanced solid tumors it is believed that fibrotic tissues act like a barrier, preventing therapeutic agents like chemotherapy or biologics from penetrating the tumor tissue. Additionally, strong fibrotic tissue is thought to contribute to excluding immune cells from entering the tumor core, creating immune excluded or immune desert phenotypes. To evaluate the anti-fibrotic properties of Ex-11, a prophylactic model of bleomycin-induced lung fibrosis in male C57BL/6 mice was utilized, and various endpoints evaluated.
# All mice in this study were 8-week-old male C57BL/6 mice purchased from Taconic. On Day −2 prior to bleomycin administration, all animals were weighed and distributed into groups with 10 mice each (Table 18) such that each group of animals contained animals of similar body weights.
# On day 0, animals were treated with 1.5 U/kg bleomycin (Blenoxane catalog number NDC 61703-323-22, Hospira Pharmaceutical) intratracheally, except Group 1, which was administered normal saline via oropharyngeal route to serve as the healthy naïve control group. Prophylactic treatment was administered from one day prior to bleomycin administration to day 21 post bleomycin administration. On Day 21, only the morning dose was administered. Animals were harvested on day 21 and lung weights were measured. Body weights of all mice was recorded at least three times a week beginning on Day −2 and ending on the day of harvest, Day 21. Pirfenidone was used as positive control compound, as it is an FDA-approved drug for the treatment of idiopathic pulmonary fibrosis (IPF) in humans. All compounds were prepared in 10% Tween-20 in water; a homogenous suspension was formulated using a magnetic stir bar.
# At the end of the study, total lung tissues were weighed and fixed for histological examination, which was conducted by a trained pathologist blinded to the treatment groups. Specifically, whole lungs from each mouse were paraffin-embedded in a single block. Two slides from each block were sectioned to the depth of the mainstem bronchi (near the center of each lobe) and stained with either hematoxylin and eosin (H&E) or Masson's trichrome (MT). Glass slides were evaluated using light microscopy by a board-certified veterinary pathologist. Lung sections were scored according to the methods described below, evaluating five randomly chosen fields in each tissue. Fixed lungs were sectioned, and consecutive tissue sections were stained with H&E or MT. Various pathological scoring parameters were used to determine the average Ashcroft score, as well as average inflammation and collagen deposition indicating fibrosis.
# Parameter of scoring formalin fixed lung sections:
# Modified Ashcroft Score: H&E-stained lung sections were scored according to the modified Ashcroft scale. Scores for five representative 200× microscopic fields per sample were averaged to obtain a mean score for each animal. […]
# [5] = BID; in animal studies; cited from earlier work
# [6] = system: COV434 cells; test: TGFβ induced proliferation, COV434; assay type: cell-based, human; settings: TGFβ 1 ng/mL, 7 days, COV434 (FoxL2 wild-type)
# Procedure: (§1) KGN and COV434 cells were seeded in triplicate in 96 well culture plates and incubated in the presence or absence of TGFβ (1 ng/mL) for 6 or 7 days, respectively. Proliferation was measured by Cell Titer Glo.
# [7] = system: KGN cells; test: TGFβ induced proliferation, KGN; assay type: cell-based, human; settings: TGFβ 1 ng/mL, 6 days, KGN (FoxL2 mutant)
# Procedure: as §1
compound,measurement,setting,value
"Cc1cccc(-c2[nH]c(CNc3ccccc3F)nc2-c2ccc3ncnn3c2)n1 [Vactosertib, reference compound]",safety margin (maximum tolerated dose)/(minimum effective dose),"[1]; female, mouse, in vivo, 10 days",3.75-6 fold
same,IC50,[2],~7.9 nM
same,LogM IC50 αSMA,[3]; donor IPF05,−7.4 LogM
same,Max PIN (%),[3]; donor IPF05,32.7%
same,LogM IC50 αSMA,[3]; donor IPF06,−7.0 LogM
same,Max PIN (%),[3]; donor IPF06,112.1%
same,LogM IC50 αSMA,[3]; donor IPF08,−7.1 LogM
same,Max PIN (%),[3]; donor IPF08,104.0%
"Cc1ccc(=O)n(-c2ccccc2)c1 [pirfenidone, reference compound]",animals lost during the study,[4]; 100 mg/kg PO BID,Only one animal in the pirfenidone group was lost
same,total lung weight,"[4]; day 21, vs bleomycin/vehicle",significant decrease in lung weight
same,largest percent change in weight,"[4]; group 4, day 9, average",−1.2%
CC(C)c1cnc(-c2cc(Cl)ccc2F)cc1Nc1ccncc1C(=O)NC(CO)CO [PF-06952229],tolerated dose,[1]; BID,50 mg/kg
same,dose at which mice experienced DLT,"[1]; mouse, in vivo",≥ 150 mg/kg
same,safety margin (maximum tolerated dose)/(minimum effective dose),"[1]; mouse, in vivo",~1.7 fold
same,minimum effective dose,[5],30 mg/kg
TGFβ: TGFβ cytokine used at 1 ng/mL to stimulate KGN and COV434 cells,proliferation (Cell Titer Glo),[6],no change
same,proliferation (Cell Titer Glo),[7],significantly increased

# — US11746103B2, “ALK-5 inhibitors and uses thereof” (Sumitomo Pharma Oncology, Inc., priority 2020, dated 2023)
